What all share (type): in vivo
The subject of assay [1] is Echinochloa crus-galli. Briefly: Test Example 4: herbicidal effect test by treatment of leave and stem in dry field farming (seven days after seeding). As to conditions: 120 g/10a active ingredient; emulsion sprayed seven days after seeding; evaluated 14 days after treatment. The method, boiled down:
(§1)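 Weeds were seeded at 20 seeds per species into the top 1 cm of alluvial upland soil in pots, then sprayed 7 days after seeding with water-diluted emulsifiable concentrate at 100 L/10 a, giving 120 g active ingredient/10 a. Duplicate pots; herbicidal rate (%) was 14 days post-treatment, from dry weight versus untreated.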

The test system of assay [2] is Amaranthus viridis. The assay is described as above. As to conditions: 120 g/10a active ingredient; emulsion sprayed seven days after seeding; evaluated 14 days after treatment. A digest of the protocol: as §1
Assay [3] concerns Chenopodium album. The assay is described as above. As to conditions: 120 g/10a active ingredient; emulsion sprayed seven days after seeding; evaluated 14 days after treatment. The method, boiled down: as §1
The test system of assay [4] is southern crabgrass. The description is as above. The settings on record: 120 g/10a active ingredient; emulsion sprayed seven days after seeding; evaluated 14 days after treatment. The method, boiled down:
as §1

Assay [5] deals with Echinochloa crus-galli. Briefly: Test Example 1: herbicidal effect test by treatment of rice paddy soil (immediately after seeding). As to conditions: 120 g/10a active ingredient, dry weight vs untreated area, 14 days after treatment. The method, boiled down: (§2)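 Applied at 120 g a.i./10 ares as diluted emulsion dropped into flooded (~3 cm) paddy soil pots right after sowing seeds 0–1 cm deep; greenhouse, two replicates. At day 14, dry weight of treated versus untreated plants gives % herbicidal rate.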

In assay [6] the test system is broad leaf weeds (Lindernia pyxidaria and Monochoria vaginalis). The assay is described as above. As to conditions: 120 g/10a active ingredient, dry weight vs untreated area, 14 days after treatment. A digest of the protocol:
as §2

Assay [7] deals with Scirpus juncoides. Described as above. The settings on record: 120 g/10a active ingredient, dry weight vs untreated area, 14 days after treatment. A digest of the protocol: as §2
For assay [8], the system named is Echinochloa crus-galli. The assay is described as follows: Test Example 2: herbicidal effect test by treatment during growing period in paddy rice cultivation (seven days after seeding). The settings on record: 120 g/10a active ingredient, assessed 14 days after treatment, dry weight vs untreated area. A digest of the protocol:
(§3)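 Post-emergence paddy water application: compounds were formulated as emulsions, diluted and dropped into flooded pots seven days after sowing at a rate equivalent to 120 g per 10 ares. Efficacy was taken as dry-weight reduction relative to untreated controls after 14 days.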

In assay [9] the test system is broad leaf weeds (Lindernia pyxidaria and Monochoria vaginalis). The assay is described as above. The settings on record: 120 g/10a active ingredient, assessed 14 days after treatment, dry weight vs untreated area. A digest of the protocol:
as §3

The test system of assay [10] is Scirpus juncoides. The assay is described as above. The settings on record: 120 g/10a active ingredient, assessed 14 days after treatment, dry weight vs untreated area. The method, boiled down:
as §3

For assay [11], the system named is Echinochloa crus-galli. Briefly: Test Example 3: herbicidal effect test by treatment of dry field farming soil (one day after seeding). As to conditions: 120 g/10a active ingredient, evaluated 14 days after treatment. A digest of the protocol:
(§4)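 Dry-field alluvium pots; weed seeds incorporated in top 1 cm; soil spray of diluted emulsion 1 d after seeding, 120 g a.i./10 a in 100 L/10 a. Readout: % reduction of dry weight vs untreated, day 14, duplicates.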

The test system of assay [12] is Amaranthus viridis. The description is as above. The settings on record: 120 g/10a active ingredient, evaluated 14 days after treatment. A digest of the protocol: as §4
Assay [13] concerns Chenopodium album. Described as above. As to conditions: 120 g/10a active ingredient, evaluated 14 days after treatment. The method, boiled down: as §4
The subject of assay [14] is southern crabgrass. Described as above. The settings on record: 120 g/10a active ingredient, evaluated 14 days after treatment. A digest of the protocol:
as §4

On to `C=CCOC(=O)N(c1ccccc1Cc1c(C)n(C(C)COC)oc1=O)S(=O)(=O)C(F)(F)F` (stereo not shown) [Compound 1-708], for which the “herbicidal effect (herbicidal rate), Echinochloa crus-galli” value in the assay on Echinochloa crus-galli [1] came to 90%. Besides, the “herbicidal effect (herbicidal rate), Amaranthus viridis” value (“herbicidal effect … Amaranthus viridis” below) with Amaranthus viridis [2] was determined as 40%. The “herbicidal effect (herbicidal rate), Chenopodium album” value (from here on “herbicidal effect … Chenopodium album”) in the assay with Chenopodium album [3] was determined as 40%. In addition, the “herbicidal effect (herbicidal rate), southern crabgrass” value (from here on “herbicidal effect … southern crabgrass”) in the assay on southern crabgrass [4] came to 90%. In addition, the “Herbicidal rate (%) Echinochloa crus-galli” value in the assay on Echinochloa crus-galli [5] and in the assay on Echinochloa crus-galli [8] was 90% throughout. The “Herbicidal rate (%) Lindernia pyxidaria” value in [6] and in [9] was 90% in each case. Besides, the “Herbicidal rate (%) Monochoria vaginalis” value in assay [6] and in assay [9] was 90% throughout. In addition, the “Herbicidal rate (%) Scirpus juncoides” value in the assay on Scirpus juncoides [7] and in the assay on Scirpus juncoides [10] was 90% each time. For the same compound, the “herbicidal rate, Echinochloa crus-galli” value in the assay with Echinochloa crus-galli [11] was determined as 90%. Also, the “herbicidal rate, Amaranthus viridis” value with Amaranthus viridis [12] is 90%. Also, the “herbicidal rate, Chenopodium album” value in the assay on Chenopodium album [13] was determined as 90%. Besides, in the assay with southern crabgrass [14], the “herbicidal rate, southern crabgrass” value was determined as 90%.
`C=CCOC(=O)N(c1ccccc1Cc1c(C)n(CCSC)oc1=O)S(=O)(=O)C(F)(F)F` [Compound 1-709]: the “herbicidal effect (herbicidal rate), Echinochloa crus-galli” value in the assay with Echinochloa crus-galli [1] was 90%. The “herbicidal effect … Amaranthus viridis” value in the assay on Amaranthus viridis [2] worked out at 40%. For the same compound, the “herbicidal effect … Chenopodium album” value with Chenopodium album [3] is reported as 40%. In addition, in the assay on southern crabgrass [4], the “herbicidal effect … southern crabgrass” value turned out to be 90%. For the same compound, the “Herbicidal rate (%) Echinochloa crus-galli” value in the assay on Echinochloa crus-galli [5] and in the assay with Echinochloa crus-galli [8] was 90% each time. For the same compound, the “Herbicidal rate (%) Lindernia pyxidaria” value in assay [6] and in assay [9] was 90% in each case. For the same compound, the “Herbicidal rate (%) Monochoria vaginalis” value in assay [6] and in assay [9] was 90% throughout. Further, the “Herbicidal rate (%) Scirpus juncoides” value in the assay on Scirpus juncoides [7] and in the assay with Scirpus juncoides [10] was 90% in each case. Further, the “herbicidal rate, Echinochloa crus-galli” value with Echinochloa crus-galli [11] was 90%. In the assay with Amaranthus viridis [12], the “herbicidal rate, Amaranthus viridis” value came to 90%. Besides, the “herbicidal rate, Chenopodium album” value with Chenopodium album [13] is given as 90%. The “herbicidal rate, southern crabgrass” value in the assay on southern crabgrass [14] was 90%.
As to `C=CCOC(=O)N(c1ccccc1Cc1c(C)n(C(C)c2ccccc2)oc1=O)S(=O)(=O)C(F)(F)F` (stereo not shown) [Compound 1-710], the “herbicidal effect (herbicidal rate), Echinochloa crus-galli” value in the assay with Echinochloa crus-galli [1] is 90%. Besides, the “herbicidal effect … Amaranthus viridis” value with Amaranthus viridis [2] was determined as 40%. Besides, the “herbicidal effect … Chenopodium album” value in the assay with Chenopodium album [3] was determined as 40%. Moreover, the “herbicidal effect … southern crabgrass” value in the assay with southern crabgrass [4] was 90%. Moreover, the “Herbicidal rate (%) Echinochloa crus-galli” value in the assay on Echinochloa crus-galli [5] and in the assay on Echinochloa crus-galli [8] was 90% each time. For the same compound, the “Herbicidal rate (%) Lindernia pyxidaria” value in [6] and in [9] was 90% each time. Further, the “Herbicidal rate (%) Monochoria vaginalis” value in assay [6] and in [9] was 90% in each case. In addition, the “Herbicidal rate (%) Scirpus juncoides” value in the assay with Scirpus juncoides [7] and in the assay on Scirpus juncoides [10] was 90% in each case. Also, the “herbicidal rate, Echinochloa crus-galli” value in the assay with Echinochloa crus-galli [11] is 90%. Moreover, the “herbicidal rate, Amaranthus viridis” value in the assay on Amaranthus viridis [12] was found to be 90%. For the same compound, the “herbicidal rate, Chenopodium album” value with Chenopodium album [13] amounted to 90%. For the same compound, in the assay on southern crabgrass [14], the “herbicidal rate, southern crabgrass” value was determined as 90%.
Regarding `CCC(C)n1oc(=O)c(Cc2ccccc2N(C(=O)OCCOC)S(=O)(=O)C(F)(F)F)c1C` (stereo not shown) [Compound 1-731], the “herbicidal effect (herbicidal rate), Echinochloa crus-galli” value with Echinochloa crus-galli [1] came out at 90%. Besides, the “herbicidal effect … Amaranthus viridis” value in the assay with Amaranthus viridis [2] is listed as 40%. For the same compound, the “herbicidal effect … Chenopodium album” value with Chenopodium album [3] is recorded as 40%. The “herbicidal effect … southern crabgrass” value with southern crabgrass [4] was 90%. Further, the “Herbicidal rate (%) Echinochloa crus-galli” value with Echinochloa crus-galli [5] and in the assay with Echinochloa crus-galli [8] was 90% in each case. For the same compound, the “Herbicidal rate (%) Lindernia pyxidaria” value in [6] and in assay [9] was 90% in each case. The “Herbicidal rate (%) Monochoria vaginalis” value in [6] and in assay [9] was 90% in each case. Further, the “Herbicidal rate (%) Scirpus juncoides” value in the assay on Scirpus juncoides [7] and in the assay on Scirpus juncoides [10] was 90% each time. Also, in the assay with Echinochloa crus-galli [11], the “herbicidal rate, Echinochloa crus-galli” value came to 90%. Moreover, in the assay with Amaranthus viridis [12], the “herbicidal rate, Amaranthus viridis” value was found to be 90%. The “herbicidal rate, Chenopodium album” value in the assay on Chenopodium album [13] amounted to 90%. Also, the “herbicidal rate, southern crabgrass” value with southern crabgrass [14] is 90%.

The values are drawn from patent US11109593B2, “Isoxazolin-5-one derivative and herbicide containing same as active ingredient” (HOKKO CHEMICAL INDUSTRY CO., LTD., priority 2017, dated 2021).
